In US10556898B2, “Indazolyl-1,2,4-thiadiazolamines and related compounds for inhibition of Rho-associated protein kinase and the treatment of disease” (Lycera Corporation, priority 2016, dated 2020):
Read-outs that look alike come from different tables or passages of the source.

Key:
[1] = biological target: T1, ROCK2 (Homo sapiens, UniProt O75116); assay: Cell-Based Assay, ROCK2 (HAP1 knockout cells, phospho-MYPT1 Thr853 ELISA); conditions: read-out: Results from Cell-Based Assay IC50 (μM) ROCK2
T1 construct: endogenous in cells; host or cells: HAP1 knockout cells
Method: (§1) Part II—Procedure for Determining ROCK Inhibition Ability of Test Compounds Using a Cell-Base Assay
(§2) The Cell-Based Assay for determining ROCK inhibition ability of test compounds utilized a genetically modified HAP1 cell line engineered to eliminate expression of either ROCK1 or ROCK2. In the procedure, HAP1 knockout cells are grown in Iscove's Modified Dulbecco's Medium that is additionally supplemented with 10% fetal bovine and 1x antibiotic-antimycotic mixture. Cells are plated in 96 well tissue culture plates at 1×10^5 cells/well (100 μL, of cells at 1×10^6/mL). Test compounds are solubilized in DMSO and diluted into the same media used to grow the cells. A 100 μL, aliquot of each compound dilution in media is added to each well containing the HAP1 cells and incubated at 37° C. for 30 minutes. Following compound incubation, the cells are pelleted by centrifugation at 1800 rpm for 5 minutes at 4° C. Media is removed from the cell pellet and the cells lysed and de-salted. An 80 μL, aliquot of each cell lysate is added to a single well of a 96-well high binding ELISA plate which has been pre-coated with a MYPT1 capture antibody and incubated at 4° C. overnight. The following day the ELISA plate is washed 4× with 0.05% Tween-20 in PBS. After washing, an anti-phospho-MYPT1 (Thr853) antibody is added and allowed to bind for 1 hour at room temperature. The wash step is repeated, and then an anti-rabbit HRP detection antibody is added and allowed to incubate at room temperature for 1 hour. The wash step is then repeated and 100 μL/well 1-Step™ Ultra TMB substrate is added to the ELISA plate and allowed to develop for approximately 5 minutes. The reaction is stopped by addition of H2SO4. Absorbance is read at 450 OD. Data is analyzed using GraphPad Prism software to calculate the 50% inhibitory concentration of test compound (IC50).

[2] = biological target: T2, GST-tagged human ROCK1 catalytic domain 1-477 (Homo sapiens, UniProt Q13464); assay: Isolated Enzyme Assay, ROCK1 (LANCE Ultra ULight-CREBtide FRET); type: biochemical; conditions: 30 μM highest concentration tested, read-out: Results from Isolated Enzyme Assay IC50 (μM) ROCK1
T2 construct: human ROCK1 catalytic domain 1-477 from Carna Biosciences (cat #01-109); purchased Carna Biosciences 01-109; host or cells: baculovirus expression system
Method: (§3) Exemplary compounds were tested for ability to inhibit Rho-associated protein kinase isoform 1 (ROCK1) and Rho-associated protein kinase isoform 2 (ROCK2). Assay procedures and results are described below.
(§4) Part I—Procedure for Determining ROCK Inhibition Ability of Test Compounds Using an Isolated Enzyme Assay
(§5) Protein constructs were purified from a baculovirus expression system. The peptide substrate was fluorescent LANCE® Ultra ULight-CREBtide: […] (PerkinElmer, # TRF0107-D). Kinase reactions were carried out in a 10 μL volume in 384-well plates: 50 nM ULight-CREBtide substrate, 2 nM constitutively active ROCK1 or ROCK2 kinase, and test compound in DMSO (or DMSO only for controls) were diluted into assay buffer containing 50 mM Tris-HCl (pH=7.5), 10 mM MgCl2, 1 mM EGTA, 0.01% Tween-20, and 2 mM DTT such that the final concentration of DMSO was 0.5%. After a 90 minute incubation at room temperature on a shaker table, the kinase reaction was stopped by addition of 10 mM EDTA, and phosphorylation of the substrate was detected by adding 1 nM LANCE® Ultra Europium-anti-phospho-CREB (ser133) antibody (PerkinElmer, # TRF0200-D) and incubating for 60 minutes on a shaker at room temperature. The fluorescence resonance energy transfer (FRET) signals were read and analyzed on an Envision™ 2103 Multilabel Reader (Perkin Elmer). The concentration of test compound required to inhibit substrate phosphorylation by 50% (the IC50) was calculated by non-linear regression using GraphPad PRIZM.

[3] = biological target: T3, GST-tagged human ROCK2 catalytic domain 1-553 (Homo sapiens, UniProt O75116); assay: Isolated Enzyme Assay, ROCK2 (LANCE Ultra ULight-CREBtide FRET); type: biochemical; conditions: 30 μM highest concentration tested, read-out: Results from Isolated Enzyme Assay IC50 (μM) ROCK2
T3 construct: GST-tagged human ROCK2 catalytic domain 1-553 from Carna Biosciences (Cat #01-110); purchased Carna Biosciences 01-110; host or cells: baculovirus expression system
Method: as §3, §4, §5

[4] = biological target: T4, ROCK1 (Homo sapiens, UniProt Q13464); assay: Cell-Based Assay, ROCK1 (HAP1 knockout cells, phospho-MYPT1 Thr853 ELISA); conditions: read-out: Results from Cell-Based Assay IC50 (μM) ROCK1
T4 construct: endogenous in cells; host or cells: HAP1 knockout cells
Method: as §1, §2

[5] = phospho-MYPT1, 30 μM highest concentration tested

T4 sequence (Q13464 whole entry): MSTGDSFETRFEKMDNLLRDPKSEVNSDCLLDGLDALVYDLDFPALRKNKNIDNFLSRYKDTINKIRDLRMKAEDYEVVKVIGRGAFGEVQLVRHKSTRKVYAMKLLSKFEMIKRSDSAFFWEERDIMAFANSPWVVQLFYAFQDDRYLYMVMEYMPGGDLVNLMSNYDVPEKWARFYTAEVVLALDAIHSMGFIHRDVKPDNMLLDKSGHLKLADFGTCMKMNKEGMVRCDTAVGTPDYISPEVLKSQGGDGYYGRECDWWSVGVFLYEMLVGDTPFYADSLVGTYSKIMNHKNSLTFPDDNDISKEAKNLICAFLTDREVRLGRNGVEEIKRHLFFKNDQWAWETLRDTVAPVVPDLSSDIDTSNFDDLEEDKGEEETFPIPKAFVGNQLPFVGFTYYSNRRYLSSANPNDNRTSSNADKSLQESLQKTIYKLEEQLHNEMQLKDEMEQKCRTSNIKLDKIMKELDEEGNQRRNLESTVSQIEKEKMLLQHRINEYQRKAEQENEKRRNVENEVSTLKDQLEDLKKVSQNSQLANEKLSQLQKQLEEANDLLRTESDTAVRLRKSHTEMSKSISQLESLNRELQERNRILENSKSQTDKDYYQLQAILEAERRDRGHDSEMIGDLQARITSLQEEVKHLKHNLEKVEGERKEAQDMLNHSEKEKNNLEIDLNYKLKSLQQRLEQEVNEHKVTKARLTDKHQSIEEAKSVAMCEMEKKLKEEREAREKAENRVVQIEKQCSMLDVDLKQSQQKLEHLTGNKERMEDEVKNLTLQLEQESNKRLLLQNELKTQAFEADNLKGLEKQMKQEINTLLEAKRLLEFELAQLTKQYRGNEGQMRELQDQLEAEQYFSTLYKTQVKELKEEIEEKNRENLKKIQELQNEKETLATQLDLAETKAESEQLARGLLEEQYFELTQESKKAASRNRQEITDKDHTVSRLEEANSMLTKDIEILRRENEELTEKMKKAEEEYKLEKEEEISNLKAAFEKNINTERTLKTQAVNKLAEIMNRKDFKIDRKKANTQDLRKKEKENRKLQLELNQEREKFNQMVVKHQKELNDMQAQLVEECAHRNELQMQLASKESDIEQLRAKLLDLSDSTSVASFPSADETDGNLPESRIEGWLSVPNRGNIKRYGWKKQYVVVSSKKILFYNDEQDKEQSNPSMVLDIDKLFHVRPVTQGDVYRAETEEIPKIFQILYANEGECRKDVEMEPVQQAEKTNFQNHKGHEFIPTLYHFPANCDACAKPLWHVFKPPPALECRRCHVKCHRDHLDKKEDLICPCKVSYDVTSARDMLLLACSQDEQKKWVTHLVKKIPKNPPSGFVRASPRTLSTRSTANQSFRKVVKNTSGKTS
T2 sequence (Q13464 1-477): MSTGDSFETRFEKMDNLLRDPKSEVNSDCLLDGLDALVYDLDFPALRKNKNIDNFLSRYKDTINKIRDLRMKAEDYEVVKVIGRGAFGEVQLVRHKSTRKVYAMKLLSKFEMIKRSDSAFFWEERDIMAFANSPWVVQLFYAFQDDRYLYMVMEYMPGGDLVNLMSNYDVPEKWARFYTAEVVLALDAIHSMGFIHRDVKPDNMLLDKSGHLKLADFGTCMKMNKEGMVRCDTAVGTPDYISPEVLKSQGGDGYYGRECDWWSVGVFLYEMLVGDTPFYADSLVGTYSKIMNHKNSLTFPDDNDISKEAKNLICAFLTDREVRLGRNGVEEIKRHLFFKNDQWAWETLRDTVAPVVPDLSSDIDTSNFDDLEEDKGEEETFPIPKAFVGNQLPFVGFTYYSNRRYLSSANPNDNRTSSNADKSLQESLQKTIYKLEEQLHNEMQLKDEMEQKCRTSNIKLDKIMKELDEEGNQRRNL
T3 sequence (O75116 1-553): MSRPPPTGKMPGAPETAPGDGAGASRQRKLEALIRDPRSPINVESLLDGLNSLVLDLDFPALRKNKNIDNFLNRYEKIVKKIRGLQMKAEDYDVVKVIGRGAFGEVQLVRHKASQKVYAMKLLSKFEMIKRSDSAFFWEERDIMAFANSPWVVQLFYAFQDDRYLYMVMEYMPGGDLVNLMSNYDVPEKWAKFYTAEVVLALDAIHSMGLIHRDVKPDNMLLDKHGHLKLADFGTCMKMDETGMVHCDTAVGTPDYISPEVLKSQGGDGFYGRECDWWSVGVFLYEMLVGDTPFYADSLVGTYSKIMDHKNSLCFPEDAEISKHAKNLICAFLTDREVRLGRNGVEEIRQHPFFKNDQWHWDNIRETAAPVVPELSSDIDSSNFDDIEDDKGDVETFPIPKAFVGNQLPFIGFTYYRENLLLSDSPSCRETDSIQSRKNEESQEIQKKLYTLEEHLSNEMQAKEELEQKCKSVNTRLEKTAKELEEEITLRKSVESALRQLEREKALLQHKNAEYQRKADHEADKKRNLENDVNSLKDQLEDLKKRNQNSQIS
T1 sequence (O75116 whole entry): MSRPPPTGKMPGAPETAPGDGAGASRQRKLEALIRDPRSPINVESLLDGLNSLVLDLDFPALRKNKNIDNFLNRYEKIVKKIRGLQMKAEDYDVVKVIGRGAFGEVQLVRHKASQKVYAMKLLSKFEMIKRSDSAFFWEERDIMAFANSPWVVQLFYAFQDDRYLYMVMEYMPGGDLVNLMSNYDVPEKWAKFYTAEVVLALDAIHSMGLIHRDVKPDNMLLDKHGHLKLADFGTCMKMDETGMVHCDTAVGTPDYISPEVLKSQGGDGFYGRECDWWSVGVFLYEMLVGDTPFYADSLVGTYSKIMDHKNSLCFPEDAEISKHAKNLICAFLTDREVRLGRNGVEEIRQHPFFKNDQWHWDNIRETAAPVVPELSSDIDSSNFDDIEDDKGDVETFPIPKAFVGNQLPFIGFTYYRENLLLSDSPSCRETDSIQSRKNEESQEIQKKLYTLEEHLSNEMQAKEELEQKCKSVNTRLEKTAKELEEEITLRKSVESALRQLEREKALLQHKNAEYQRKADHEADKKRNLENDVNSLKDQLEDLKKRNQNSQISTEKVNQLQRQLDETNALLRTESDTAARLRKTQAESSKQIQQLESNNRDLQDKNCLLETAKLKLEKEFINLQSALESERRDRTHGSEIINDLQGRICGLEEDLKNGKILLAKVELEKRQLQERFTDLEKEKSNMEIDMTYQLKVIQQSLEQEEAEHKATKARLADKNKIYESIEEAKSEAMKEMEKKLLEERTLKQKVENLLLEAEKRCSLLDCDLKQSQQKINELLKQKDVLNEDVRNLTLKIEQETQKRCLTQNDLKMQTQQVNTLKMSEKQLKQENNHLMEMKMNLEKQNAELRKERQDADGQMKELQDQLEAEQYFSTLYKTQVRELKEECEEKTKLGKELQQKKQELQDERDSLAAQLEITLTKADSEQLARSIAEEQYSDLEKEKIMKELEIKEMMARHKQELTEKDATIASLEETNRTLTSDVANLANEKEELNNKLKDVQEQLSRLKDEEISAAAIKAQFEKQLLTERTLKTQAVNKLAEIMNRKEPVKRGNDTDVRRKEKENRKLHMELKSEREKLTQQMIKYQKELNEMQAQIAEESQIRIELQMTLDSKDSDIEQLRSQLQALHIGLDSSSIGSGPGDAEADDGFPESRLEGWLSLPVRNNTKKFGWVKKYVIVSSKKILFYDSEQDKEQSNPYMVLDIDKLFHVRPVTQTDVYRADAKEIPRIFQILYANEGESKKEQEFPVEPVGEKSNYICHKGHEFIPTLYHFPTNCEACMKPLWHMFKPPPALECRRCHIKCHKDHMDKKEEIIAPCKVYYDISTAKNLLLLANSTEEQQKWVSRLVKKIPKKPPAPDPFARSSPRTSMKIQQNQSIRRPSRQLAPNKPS

O=C(Nc1ccccn1)c1cccc(-c2nsc(Nc3ccc4[nH]ncc4c3Cl)n2)c1 [IV-66]
IC50 ([1]; class symbols): < 1 µM
IC50 ([2]; isolated enzyme assay): < 1 µM
IC50 ([3]; isolated enzyme assay): < 1 µM
IC50 ([4]; class symbols): 1 to 15 µM

CCCOC(=O)Nc1cc(-c2nsc(Nc3ccc4[nH]ncc4c3Cl)n2)cn(C)c1=O [IV-5]
IC50 ([1]; class symbols): < 1 µM
IC50 ([2]; isolated enzyme assay): < 1 µM
IC50 ([3]; isolated enzyme assay): < 1 µM
IC50 ([4]; class symbols): 1 to 15 µM

Cn1nccc1C(=O)Nc1cc(-c2nsc(Nc3ccc4[nH]ncc4c3Cl)n2)cn(C)c1=O [IV-6]
IC50 ([1]; class symbols): < 1 µM
IC50 ([2]; isolated enzyme assay): < 1 µM
IC50 ([3]; isolated enzyme assay): < 1 µM
IC50 ([4]; numeric bound): > 10 µM

Cc1cc(C(=O)Nc2cccc(-c3nsc(Nc4ccc5[nH]ncc5c4Cl)n3)c2)n[nH]1 [IV-76]
IC50 ([1]; class symbols): < 1 µM
IC50 ([2]; isolated enzyme assay): < 1 µM
IC50 ([3]; isolated enzyme assay): < 1 µM
IC50 ([4]; numeric bound): > 10 µM

Cn1nncc1C(=O)Nc1cccc(-c2nsc(Nc3ccc4[nH]ncc4c3Cl)n2)c1 [IV-62]
IC50 ([1]; class symbols): < 1 µM
IC50 ([2]; isolated enzyme assay): < 1 µM
IC50 ([3]; isolated enzyme assay): < 1 µM
IC50 ([4]; numeric bound): > 10 µM

C[C@@H]1CN(c2cccc(-c3nsc(Nc4ccc5[nH]ncc5c4Cl)n3)c2)C(=O)O1 [IV-31]
IC50 ([1]; class symbols): < 1 µM
IC50 ([2]; isolated enzyme assay): < 1 µM
IC50 ([3]; isolated enzyme assay): < 1 µM
IC50 ([4]; class symbols): 1 to 15 µM

Oc1ccn(-c2cccc(-c3nsc(Nc4ccc5[nH]ncc5c4Cl)n3)c2)n1 [IV-17]
IC50 ([1]; class symbols): 1 to 15 µM
IC50 ([2]; isolated enzyme assay): < 1 µM
IC50 ([3]; isolated enzyme assay): < 1 µM
IC50 ([4]; numeric bound): > 10 µM

O=C1CCCN1c1cccc(-c2nsc(Nc3ccc4[nH]ncc4c3Cl)n2)c1 [IV-83]
IC50 ([1]; class symbols): < 1 µM
IC50 ([2]; isolated enzyme assay): < 1 µM
IC50 ([3]; isolated enzyme assay): < 1 µM
IC50 ([4]; class symbols): 1 to 15 µM

COc1ncc(C(=O)Nc2cncc(-c3nsc(Nc4ccc5[nH]ncc5c4Cl)n3)c2)cn1 [IV-8]
IC50 ([1]; numeric bound): > 10 µM
IC50 ([2]; isolated enzyme assay): > 30 µM
IC50 ([3]; isolated enzyme assay): < 1 µM
IC50 ([4]; numeric bound): > 10 µM

O=C(Nc1cccc(-c2nsc(Nc3ccc4[nH]ncc4c3Cl)n2)c1)c1ccccn1 [IV-74]
IC50 ([1]; class symbols): < 1 µM
IC50 ([2]; isolated enzyme assay): < 1 µM
IC50 ([3]; isolated enzyme assay): < 1 µM
IC50 ([4]; class symbols): 1 to 15 µM

Cc1cc(C(=O)Nc2cncc(-c3nsc(Nc4ccc5[nH]ncc5c4Cl)n3)c2)n(C)n1 [IV-42]
IC50 ([1]; class symbols): < 1 µM
IC50 ([2]; isolated enzyme assay): > 30 µM
IC50 ([3]; isolated enzyme assay): > 30 µM
IC50 ([4]; numeric bound): > 10 µM

COc1ncc(C(=O)Nc2cc(-c3nsc(Nc4ccc5[nH]ncc5c4Cl)n3)cn(C)c2=O)cn1 [IV-7]
IC50 ([1]; numeric bound): > 10 µM
IC50 ([2]; isolated enzyme assay): > 30 µM
IC50 ([3]; isolated enzyme assay): < 1 µM
IC50 ([4]; numeric bound): > 10 µM

Cn1cnc2c(-c3nsc(Nc4ccc5[nH]ncc5c4Cl)n3)cccc21 [IV-82]
IC50 ([1]; class symbols): < 1 µM
IC50 ([2]; isolated enzyme assay): < 1 µM
IC50 ([3]; isolated enzyme assay): 1 to 15 µM
IC50 ([4]; class symbols): 1 to 15 µM

Cc1cnc(-c2cc(-c3nsc(Nc4ccc5[nH]ncc5c4Cl)n3)cn(C)c2=O)o1 [IV-12]
IC50 ([1]; class symbols): < 1 µM
IC50 ([2]; isolated enzyme assay): < 1 µM
IC50 ([3]; isolated enzyme assay): < 1 µM
IC50 ([4]; numeric bound): > 10 µM

Cn1cc(C(=O)Nc2cccc(-c3nsc(Nc4ccc5[nH]ncc5c4Cl)n3)c2)cn1 [IV-78]
IC50 ([1]; class symbols): < 1 µM
IC50 ([2]; isolated enzyme assay): < 1 µM
IC50 ([3]; isolated enzyme assay): < 1 µM
IC50 ([4]; numeric bound): > 10 µM

CNC(=O)c1cc(-c2nsc(Nc3ccc4[nH]ncc4c3Cl)n2)ccc1F [IV-49]
IC50 ([1]; class symbols): < 1 µM
IC50 ([2]; isolated enzyme assay): < 1 µM
IC50 ([3]; isolated enzyme assay): < 1 µM
IC50 ([4]; numeric bound): > 10 µM

Cn1cc(-c2nsc(Nc3ccc4[nH]ncc4c3Cl)n2)cc(NC(=O)c2ccccc2F)c1=O [IV-50]
IC50 ([1]; class symbols): < 1 µM
IC50 ([2]; isolated enzyme assay): > 30 µM
IC50 ([3]; isolated enzyme assay): < 1 µM
IC50 ([4]; numeric bound): > 10 µM

C[C@H]1CN(c2cccc(-c3nsc(Nc4ccc5[nH]ncc5c4Cl)n3)c2)C(=O)O1 [IV-32]
IC50 ([1]; class symbols): < 1 µM
IC50 ([2]; isolated enzyme assay): < 1 µM
IC50 ([3]; isolated enzyme assay): < 1 µM
IC50 ([4]; class symbols): 1 to 15 µM

Cc1cc(NC(=O)c2cocn2)cc(-c2nsc(Nc3ccc4[nH]ncc4c3Cl)n2)n1 [IV-19]
IC50 ([1]; class symbols): < 1 µM
IC50 ([2]; isolated enzyme assay): < 1 µM
IC50 ([3]; isolated enzyme assay): < 1 µM
IC50 ([4]; numeric bound): > 10 µM

CC1(C)CN(c2cccc(-c3nsc(Nc4ccc5[nH]ncc5c4Cl)n3)c2)C(=O)O1 [IV-54]
IC50 ([1]; class symbols): < 1 µM
IC50 ([2]; isolated enzyme assay): < 1 µM
IC50 ([3]; isolated enzyme assay): < 1 µM
IC50 ([4]; class symbols): 1 to 15 µM

COc1cccc(C(=O)Nc2cc(C)nc(-c3nsc(Nc4ccc5[nH]ncc5c4Cl)n3)c2)c1 [IV-44]
IC50 ([1]; class symbols): 1 to 15 µM
IC50 ([2]; isolated enzyme assay): > 30 µM
IC50 ([3]; isolated enzyme assay): > 30 µM

Cc1cc(C(=O)Nc2cccc(-c3nsc(Nc4ccc5[nH]ncc5c4Cl)n3)c2)n(C)n1 [Compound A-12]
IC50 [1, 5]: < 1 µM
IC50 ([2]; isolated enzyme): < 1 µM
IC50 ([3]; isolated enzyme): < 1 µM

Cc1nc(C)c(C(=O)Nc2cccc(-c3nsc(Nc4ccc5[nH]ncc5c4Cl)n3)c2)s1 [Compound A-11]
IC50 [1, 5]: < 1 µM
IC50 ([2]; isolated enzyme): < 1 µM
IC50 ([3]; isolated enzyme): < 1 µM

Cn1cc(-c2nsc(Nc3ccc4[nH]ncc4c3Cl)n2)cc(NC(=O)c2ccccc2)c1=O [IV-39]
IC50 ([1]; class symbols): < 1 µM
IC50 ([2]; isolated enzyme assay): 1 to 15 µM
IC50 ([3]; isolated enzyme assay): < 1 µM

O=C(Nc1cccc(-c2nsc(Nc3ccc4[nH]ncc4c3Cl)n2)c1)c1cnc[nH]1 [Compound A-14]
IC50 [1, 5]: < 1 µM
IC50 ([2]; isolated enzyme): < 1 µM
IC50 ([3]; isolated enzyme): < 1 µM

COc1ncc(-c2nsc(Nc3ccc4[nH]ncc4c3Cl)n2)cc1NC(=O)c1ccnn1C [IV-106]
IC50 ([1]; numeric bound): > 10 µM
IC50 ([2]; isolated enzyme assay): > 30 µM
IC50 ([3]; isolated enzyme assay): > 30 µM

Cc1cc(NC(=O)c2cnco2)cc(-c2nsc(Nc3ccc4[nH]ncc4c3Cl)n2)n1 [IV-25]
IC50 ([1]; numeric bound): > 10 µM
IC50 ([2]; isolated enzyme assay): < 1 µM
IC50 ([3]; isolated enzyme assay): < 1 µM

Cc1cc(NC(=O)c2cncs2)cc(-c2nsc(Nc3ccc4[nH]ncc4c3Cl)n2)n1 [IV-20]
IC50 ([1]; numeric bound): > 10 µM
IC50 ([2]; isolated enzyme assay): < 1 µM
IC50 ([3]; isolated enzyme assay): < 1 µM
